The structures appear in SMILES notation. Where only a bound is given, the exact number is not on record here.

The source of these data is patent US20220030867A1 (priority 2018, published 2022).

The subject of series [1] is Magnaporthe grisea (Pyricularia oryzae). Briefly: microbe, parasite or virus in culture. The format is cell-based. The settings on record: read-out: control of Magnaporthe grisea.
The test system is the same in series [2]. Briefly: whole plant or invertebrate. The format is in vivo, Magnaporthe grisea on rice leaf segments cv. Ballila. The settings on record: foliar, read-out: control of Magnaporthe grisea.
The subject of series [3] is Mycosphaerella graminicola (Septoria tritici). The series can be described thus: Mycosphaerella graminicola (Septoria tritici) / liquid culture (Septoria blotch). The class given is cell-based. The conditions noted are these: Zymoseptoria tritici, growth inhibition photometrically 4-5 days after application, vs untreated control. How it is done:
Mycosphaerella graminicola (Septoria tritici)/Liquid Culture (Septoria Blotch)
(§1) Conidia of the fungus from cryogenic storage are directly mixed into nutrient broth (PDB potato dextrose broth). After placing a (DMSO) solution of test compound into a microtiter plate (96-well format), the nutrient broth containing the fungal spores is added. The test plates are incubated at 24° C. and the inhibition of growth is determined photometrically 4-5 days after application.

In series [4] the test system is Sclerotinia sclerotiorum. Briefly: Sclerotinia sclerotiorum / liquid culture (cottony rot). The class given is cell-based. The conditions noted are these: growth inhibition photometrically 3-4 days after application, vs untreated control. How it is done: Sclerotinia sclerotiorum/Liquid Culture (Cottony Rot)
Mycelia fragments of a newly grown liquid culture of the fungus are directly mixed into nutrient broth (Vogels broth). After placing a (DMSO) solution of test compound into a microtiter plate (96-well format) the nutrient broth containing the fungal material is added. The test plates are incubated at 24° C. and the inhibition of growth is determined photometrically 3-4 days after application.

For series [5], the system named is Fusarium culmorum. Briefly: whole plant or invertebrate. The settings on record: in Triticum aestivum, read-out: control of Fusarium culmorum. The format is in vivo, Fusarium culmorum on wheat spikelets cv. Monsun.
In series [6] the test system is Botryotinia fuckeliana (Botrytis cinerea). The series can be described thus: Botryotinia fuckeliana (Botrytis cinerea) / liquid culture (gray mould). The format is cell-based. The settings on record: growth inhibition photometrically 3-4 days after application, vs untreated control. How it is done:
Botryotinia fuckeliana (Botrytis cinerea)/Liquid Culture (Gray Mould)
Conidia of the fungus from cryogenic storage are directly mixed into nutrient broth (Vogels broth). After placing a (DMSO) solution of test compound into a microtiter plate (96-well format), the nutrient broth containing the fungal spores is added. The test plates are incubated at 24° C. and the inhibition of growth is determined photometrically 3-4 days after application.

Series [7] concerns Fusarium culmorum. The series can be described thus: microbe, parasite or virus in culture. The format is cell-based. The conditions noted are these: read-out: control of Fusarium culmorum.
For series [8], the system named is Glomerella lagenarium (Colletotrichum lagenarium). The series can be described thus: Glomerella lagenarium (Colletotrichum lagenarium) / liquid culture (anthracnose). The class given is cell-based. The conditions noted are these: Colletotrichum orbiculare, growth inhibition photometrically 3-4 days after application, vs untreated control. How it is done: Conidia of the fungus from cryogenic storage are directly mixed into nutrient broth (PDB potato dextrose broth). After placing a (DMSO) solution of test compound into a microtiter plate (96-well format), the nutrient broth containing the fungal spores is added. The test plates are incubated at 24° C. and the inhibition of growth is measured photometrically 3-4 days after application.

Series [9] concerns Monographella nivalis (Microdochium nivale). Briefly: Monographella nivalis (Microdochium nivale) / liquid culture (foot rot cereals). The class given is cell-based. The settings on record: growth inhibition photometrically 4-5 days after application, vs untreated control. How it is done:
Monographella nivalis (Microdochium nivale)/Liquid Culture (Foot Rot Cereals)
as §1

`C=C(C)CC(Cc1ccccc1)C(=O)Nc1cnc2c(F)cccc2c1C` (stereo not drawn) [Compound E-93, 2-benzyl-N-(8-fluoro-4-methyl-3-quinolyl)-4-methyl-pent-4-enamide]: the melting point (usually the temperature of the solid-liquid transition) was 116 to 118 °C. Also, in series [1], the inhibition of growth at 200 ppm is ≥ 80%. For the same compound, the pest or weed control at 200 ppm in series [2] is ≥ 80%. Besides, in series [3], the inhibition of growth at 200 ppm was ≥ 80%. In addition, in series [4], the inhibition of growth at 20 ppm is ≥ 80%.

On to `CC(C)CC(F)(Cc1ccccc1)C(=O)Nc1cnc2c(F)cccc2c1` (stereo not drawn) [Compound E-1], for which the pest or weed control at 200 ppm in series [5] and in series [2] was ≥ 80% in each case. For the same compound, the inhibition of growth at 200 ppm in series [1] and in series [3] was ≥ 80% throughout.

Turning to `Cc1c(NC(=O)C(Cc2ccccc2)CC(C)(C)C)cnc2c(F)cccc12` (stereo not drawn) [Compound E-96, 2-benzyl-N-(8-fluoro-4-methyl-3-quinolyl)-4,4-dimethyl-pentanamide], the melting point fell in the range of 135 to 136 °C. Also, the inhibition of growth at 200 ppm in [6] is ≥ 80%. In addition, the inhibition of growth at 200 ppm in [7] was ≥ 80%. The pest or weed control at 200 ppm in series [5] was ≥ 80%. Also, the inhibition of growth at 200 ppm in series [8] was ≥ 80%. Besides, the inhibition of growth at 200 ppm in series [9] was ≥ 80%. The inhibition of growth at 200 ppm in series [1] is ≥ 80%. For the same compound, the pest or weed control at 200 ppm in series [2] was ≥ 80%. Besides, the inhibition of growth at 20 ppm in [4] is ≥ 80%.

Take `C=C(Cl)C[C@](C)(Cc1ccccc1)C(=O)Nc1cc2cccc(F)c2nc1C` [Compound F-44, (2S)-2-benzyl-4-chloro-N-(8-fluoro-2-methyl-3-quinolyl)-2-methyl-pent-4-enamide]: the inhibition of growth at 200 ppm in series [6], in series [7], in [8], in [9] and in series [1] was ≥ 80% each time. For the same compound, the pest or weed control at 200 ppm in series [5] and in series [2] was ≥ 80% each time. Besides, the inhibition of growth at 20 ppm in series [4] was ≥ 80%.

Take `Cc1c(NC(=O)[C@@H](Cc2ccccc2)CC2(C)CC2)cnc2c(F)cccc12` [Compound F-40, (2R)-2-benzyl-N-(8-fluoro-4-methyl-3-quinolyl)-3-(1-methylcyclopropyl)propanamide]: the inhibition of growth at 200 ppm in [6], in series [7], in series [8], in series [9], in series [1] and in [3] was ≥ 80% in each case. In addition, the pest or weed control at 200 ppm in series [5] is ≥ 80%. The inhibition of growth at 20 ppm in series [4] was ≥ 80%.

As to `C=C(C)CC(Cc1ccccc1)C(=O)Nc1cc2cccc(F)c2nc1C` (stereo not drawn) [Compound E-92, 2-benzyl-N-(8-fluoro-2-methyl-3-quinolyl)-4-methyl-pent-4-enamide], the melting point lay in the range of 97 to 99 °C. The pest or weed control at 200 ppm in series [5] was ≥ 80%. Besides, in [1], the inhibition of growth at 200 ppm was ≥ 80%. Besides, the inhibition of growth at 200 ppm in series [3] was ≥ 80%.

As to `C=C(Cl)C[C@@](C)(Cc1ccccc1)C(=O)Nc1cnc2c(F)cccc2c1C` [Compound F-42, (2R)-2-benzyl-4-chloro-N-(8-fluoro-4-methyl-3-quinolyl)-2-methyl-pent-4-enamide], the inhibition of growth at 200 ppm in series [6], in [7], in series [8], in [9] and in series [1] was ≥ 80% throughout. The pest or weed control at 200 ppm in series [5] and in series [2] was ≥ 80% throughout. The inhibition of growth at 20 ppm in series [4] is ≥ 80%.

The compound `CC1(CC(Cc2ccccc2)C(=O)Nc2cnc3c(F)cccc3c2)CC1` (stereo not drawn) [Compound E-91, 2-benzyl-N-(8-fluoro-3-quinolyl)-3-(1-methylcyclopropyl)propanamide] showed a melting point of 135 to 136 °C. The inhibition of growth at 200 ppm in series [6] is ≥ 80%. Besides, in series [7], the inhibition of growth at 200 ppm was ≥ 80%. For the same compound, the pest or weed control at 200 ppm in series [5] is ≥ 80%. In addition, the inhibition of growth at 200 ppm in series [8] is ≥ 80%. For the same compound, in [9], the inhibition of growth at 200 ppm is ≥ 80%. Also, in series [1], the inhibition of growth at 200 ppm was ≥ 80%. Besides, the pest or weed control at 200 ppm in series [2] is ≥ 80%. Moreover, the inhibition of growth at 20 ppm in [4] is ≥ 80%.

For the compound `C=C(Cl)C[C@@H](Cc1ccccc1)C(=O)Nc1cnc2c(F)cccc2c1C` [Compound F-27, (2R)-2-benzyl-4-chloro-N-(8-fluoro-4-methyl-3-quinolyl)pent-4-enamide], the inhibition of growth at 200 ppm in series [6], in series [8], in [9], in [1] and in series [3] was ≥ 80% each time.

Compound `Cc1c(NC(=O)C(Cc2ccccc2)CC2(C)CC2)cnc2c(F)cccc12` (stereo not drawn) [Compound E-90, 2-benzyl-N-(8-fluoro-4-methyl-3-quinolyl)-3-(1-methylcyclopropyl)propanamide] gave a melting point of 144 to 146 °C. In addition, the inhibition of growth at 200 ppm in series [6] was ≥ 80%. Further, in series [7], the inhibition of growth at 200 ppm was ≥ 80%. In addition, in series [5], the pest or weed control at 200 ppm was ≥ 80%. The inhibition of growth at 200 ppm in series [8] is ≥ 80%. In addition, the inhibition of growth at 200 ppm in [9] is ≥ 80%. In series [1], the inhibition of growth at 200 ppm was ≥ 80%. Besides, in series [2], the pest or weed control at 200 ppm is ≥ 80%. The inhibition of growth at 20 ppm in series [4] was ≥ 80%.

`Cc1nc2c(F)cccc2cc1NC(=O)C(Cc1ccccc1)CC1(C)CC1` (stereo not drawn) [Compound E-89, 2-benzyl-N-(8-fluoro-2-methyl-3-quinolyl)-3-(1-methylcyclopropyl)propanamide] showed a melting point of 162 to 163 °C. In addition, the inhibition of growth at 200 ppm in series [6] was ≥ 80%. Besides, in series [7], the inhibition of growth at 200 ppm is ≥ 80%. In addition, the pest or weed control at 200 ppm in series [5] is ≥ 80%. In addition, the inhibition of growth at 200 ppm in [8] was ≥ 80%. In addition, the inhibition of growth at 200 ppm in series [9] was ≥ 80%. Also, the inhibition of growth at 200 ppm in series [1] is ≥ 80%. The pest or weed control at 200 ppm in series [2] was ≥ 80%. In addition, the inhibition of growth at 20 ppm in [4] is ≥ 80%.

For `C=C(Cl)C[C@@H](Cc1ccccc1)C(=O)Nc1cc2cccc(F)c2nc1C` [Compound F-25, (2R)-2-benzyl-4-chloro-N-(8-fluoro-2-methyl-3-quinolyl)pent-4-enamide], the inhibition of growth at 200 ppm in series [6], in series [7], in series [8], in series [1] and in series [3] was ≥ 80% in each case. Moreover, the pest or weed control at 200 ppm in [5] and in series [2] was ≥ 80% each time.

In turn, `C=C(Cl)CC(Cc1ccccc1)C(=O)Nc1cc2cccc(F)c2nc1C` (stereo not drawn) [Compound E-4, 2-benzyl-4-chloro-N-(8-fluoro-2-methyl-3-quinolyl)pent-4-enamide] had a melting point of 96 to 99 °C. In addition, in series [1], the inhibition of growth at 200 ppm is ≥ 80%. The inhibition of growth at 200 ppm in series [3] is ≥ 80%.

For the compound `Cc1c(NC(=O)[C@@H](Cc2ccccc2)CC(C)(C)C)cnc2c(F)cccc12` [Compound F-36, (2R)-2-benzyl-N-(8-fluoro-4-methyl-3-quinolyl)-4,4-dimethyl-pentanamide], the inhibition of growth at 200 ppm in series [6], in [7], in series [8], in series [9] and in [1] was ≥ 80% in each case. The pest or weed control at 200 ppm in series [5] and in [2] was ≥ 80% throughout. Also, the inhibition of growth at 20 ppm in series [4] is ≥ 80%.
